Molecules are shown by their SMILES. Values after ≈ are worked out from the molar mass of the structure shown. Read-outs that look alike come from different tables or passages of the source. Marks after values point to notes of the source that are not given here.

Assay [1] relates to T24 (bladder). The following applies: for IC50: Homo sapiens, read-out: IC50 of standard agent alone.
In assay [2] the test system is PANC1 (pancreas). The settings on record: for IC50: Homo sapiens, PANC-1, read-out: IC50 of standard agent alone.
For another assay, the system named is MT-4 cells. The assay is described as follows: Viability of mock-infected MT-4 cells (MTT). Format: cell-based. The settings on record: viability of mock-infected MT-4 cells reduced by 50%. The method, then:
Compound concentrations (μg/ml) required to reduce the viability of mock-infected MT-4 cells by 50% are determined by the MTT-method.

Another assay relates to HIV-1. The following applies: 50% protection of MT-4 cells, MTT-method.
Assay [3] deals with T24 (bladder).
The subject of assay [4] is PANC1 (pancreas).
In assay [5] the target is reverse-transcriptase enzyme. The assay is described as follows: Efficacy against reverse-transcriptase (RT). Format: biochemical. The following applies: in vitro. The method, then:
5.a Efficacy Against Reverse-Transcriptase (RT) Using Phosphonoformate as Inhibitors of RT • The inhibitory effect of the cold extract according to the present invention against the reverse-transcriptase enzyme is also studied using three different concentrations (0.1, 1 and 10 μg/ml) in vitro and compared with the phosphonoformate (PFA) as inhibitors of RT.

Excerpt for HIV-1: 1-Mock-infected MT-4 cell lines are used to support the growth of the HIV-1 virus.
Compound concentrations (μg/ml) required to achieve 50% protection of MT-4 cells from the HIV-1 induced cytopathogenecity, as determined by the MTT-method.

As for `COc1cccc2c1C(=O)c1c(O)c3c(c(O)c1C2=O)C[C@@](O)(C(=O)CO)C[C@@H]3O[C@H]1C[C@H](N)[C@H](O)[C@H](C)O1` [ADR, adriamycin], the IC50 in the assay on HCT116 (colon) was 0.006 µg/mL (≈ 0.011 µM); in the assay on H460 (lung), 0.004 µg/mL (≈ 0.00736 µM); in the assay with T24 (bladder) [1] it was 0.058 µg/mL (≈ 0.107 µM); in the assay on PANC1 (pancreas) [2], 0.022 µg/mL (≈ 0.0405 µM).
In turn, `Nc1nc2[nH]cc(CCc3ccc(C(=O)N[C@@H](CCC(=O)O)C(=O)O)cc3)c2c(=O)[nH]1` [Alimta, alimta] gave a half-inhibitory concentration (IC50) in the assay on H460 (lung) of 0.018 µg/mL (≈ 0.0421 µM). Moreover, in the assay with PANC1 (pancreas) [2] (PANC1, no Breastin, Exp. GF683, IC70), the “standard agent alone, based on IC70 values” was <100^2) μg/ml.
As for `Cc1cn([C@H]2C[C@H](N=[N+]=[N-])[C@@H](CO)O2)c(=O)[nH]c1=O` [AZT], the “IC50 (MT-4)” value in the assay on MT-4 cells is over 10 µg/mL. In addition, the “EC50 (HIV-1)” value with HIV-1 worked out at 0.01 µg/mL (≈ 0.0374 µM).
On to `CC(=O)O[C@H]1C(=O)[C@@]2(C)[C@H]([C@H](OC(=O)c3ccccc3)[C@]3(O)C[C@H](OC(=O)[C@H](O)[C@@H](NC(=O)c4ccccc4)c4ccccc4)C(C)=C1C3(C)C)[C@]1(OC(C)=O)CO[C@@H]1C[C@@H]2O` [TAXOL, taxol], for which the concentration for half-maximal inhibition (IC50) was determined as 0.0019 µg/mL (≈ 0.00223 µM) in the assay on H460 (lung), 0.01 µg/mL (≈ 0.0117 µM) in the assay on T24 (bladder) [1] and 0.0019 µg/mL (≈ 0.00223 µM) with PANC1 (pancreas) [2].
With `CC[C@@]1(O)C(=O)OCc2c1cc1n(c2=O)Cc2cc3c(CN(C)C)c(O)ccc3nc2-1` [Topotecan, topotecan], the IC50 with HCT116 (colon) turned out to be 0.0066 µg/mL (≈ 0.0157 µM); with T24 (bladder) [3], 0.0032 µg/mL (≈ 0.00759 µM); in the assay with H460 (lung), 0.0079 µg/mL (≈ 0.0187 µM).
For `CO[C@@]12[C@H](COC(N)=O)C3=C(C(=O)C(C)=C(N)C3=O)N1C[C@@H]1N[C@@H]12` [Mitomycin, mitomycin-C], the concentration for half-maximal inhibition (IC50) amounted to 0.056 µg/mL (≈ 0.167 µM) in the assay with T24 (bladder) [3] and 0.009 µg/mL (≈ 0.0269 µM) in the assay on H460 (lung).
On to `CCC1=C[C@@H]2CN(C1)Cc1c([nH]c3ccccc13)[C@@](C(=O)OC)(c1cc3c(cc1OC)N(C)[C@H]1[C@@](O)(C(=O)OC)[C@H](OC(C)=O)[C@]4(CC)C=CCN5CC[C@]31[C@@H]54)C2` [Navelbine, navelbine], for which the IC50 in the assay on PANC1 (pancreas) [4] is 0.119 µg/mL (≈ 0.153 µM); in the assay on HCT116 (colon), 0.06 µg/mL (≈ 0.077 µM); in the assay with T24 (bladder) [3] it was 0.144 µg/mL (≈ 0.185 µM); with H460 (lung), 0.057 µg/mL (≈ 0.0732 µM).
`N.N.[Cl][Pt][Cl]` [Cis-Platin, cisplatin] registered an IC50 in the assay on HCT116 (colon) of over 30 µg/mL. In addition, the “IC50 of standard agent alone” value with T24 (bladder) [1] (T24, no Breastin, Exp. GF649) is over 30 µg/mL; in the assay with PANC1 (pancreas) [2] (PANC1, no Breastin, Exp. GF654), 5.48 µg/mL.
Consider `CC(=O)O[C@@]12CO[C@@H]1C[C@H](O)[C@@]1(C)C(=O)[C@H](O)C3=C(C)[C@@H](OC(=O)[C@H](O)[C@@H](NC(=O)OC(C)(C)C)c4ccccc4)C[C@@](O)([C@@H](OC(=O)c4ccccc4)[C@H]21)C3(C)C` [Taxotere, taxotere], for which the results for the IC50 in the assay on T24 (bladder) [3] and with H460 (lung) were 0.163 µg/mL (≈ 0.202 µM) and 0.059 µg/mL (≈ 0.073 µM), respectively.
As to `O=C(O)P(=O)(O)O` [PFA, phosphonoformate], the “IC50, reverse-transcriptase enzyme” value in [5] lay in the range of 6 to 20 µg/mL.
Regarding `O=P1(N(CCCl)CCCl)NCCCO1` (stereo not shown) [CYACT, cyclophosphamide], the figures for the IC50 in the assay with PANC1 (pancreas) [4] and in the assay on T24 (bladder) [3] were 0.193 µg/mL (≈ 0.739 µM) and 0.32 µg/mL (≈ 1.23 µM), respectively.
As for `O=c1[nH]cc(F)c(=O)[nH]1` [5-FU, 5-fluoro-uracil], the results for the half-maximal inhibitory concentration (IC50) in the assay with H460 (lung), with T24 (bladder) [1] and in the assay with PANC1 (pancreas) [2] were 0.157 µg/mL (≈ 1.21 µM), 0.429 µg/mL (≈ 3.3 µM) and 0.247 µg/mL (≈ 1.9 µM), respectively.

These data come from US20070154573A1 (priority 2005, published 2007).
